Data as given in US9708314B2, “Heterocyclic amide compound” (NISSAN CHEMICAL INDUSTRIES, LTD., priority 2013, dated 2017).

Legend:
Type in all cases: in vivo
[1] = system: directly sowed Oryza sativa; test: Test Example 4: effect on crop by application to foliage (diluvial soil, plastic box)
In short: (§1)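 Seeds sown in sterilized diluvial soil, covered ~1.5 cm, grown 14 days in greenhouse at 25° C. to 30° C. Emulsion formulation diluted in water to set rate (g/ha) and sprayed onto stems and leaves. Effect scored visually 3 weeks later on 0–5 scale (5 = ≥90% herbicidal ratio, 0 = ≤5%).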

Glycine max = test: as above
In short: as §1

Triticum aestivum = test: as above
In short: as §1

Brassica campestris L. = test: as above
In short: as §1

Zea mays = test: as above
In short: as §1

[2] = system: Beta vulgaris ssp. vulgaris; test: as above
In short: as §1

[3] = system: Echinochloa oryzacola Vasing.; test: Test Example 2: herbicidal activity, application during weed generation in submerged conditions; settings: Eighteenth Table; application herbicide amount 320 g/ha
In short: (§2)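 Scored three weeks post-application on a 0–5 scale (5: ≥90% herbicidal ratio, almost withered; 0: ≤5%). Plants raised from mixed-sown seed in submerged alluvial soil (4 cm water), 25–30 °C greenhouse; water-diluted emulsion applied onto water surface at one- to two-leaf stage, dose in g/ha.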

Scirpus juncoides = test: as above; settings: Eighteenth Table; application herbicide amount 320 g/ha
In short: as §2

Monochoria vaginalis = test: as above; settings: Eighteenth Table; application herbicide amount 320 g/ha
In short: as §2

Lolium multiflorum Lam. = test: Test Example 4: herbicidal effect by application to foliage (diluvial soil, plastic box)
In short: as §1

Abutilon theophrasti = test: as above
In short: as §1

Amaranthus retroflexus = test: as above
In short: as §1

Digitaria ciliaris = test: as above
In short: as §1

Chenopodium album = test: as above
In short: as §1

Galium spurium = test: as above
In short: as §1

Veronica persica = test: as above
In short: as §1

Alopecurus myosuroides = test: as above
In short: as §1

Stellaria media = test: as above
In short: as §1

Apera spica-venti. = test: as above
In short: as §1

Avena fatua = test: as above
In short: as §1

[4] = system: Echinochloa crus-galli var. crus-galli; test: as above
In short: as §1

[5] = Application herbicide amount 320 g/ha, foliage application
[6] = application to foliage, application herbicide amount 320 g/ha

**Q.** What does the source list for `CCSc1nnc2c(C(=O)Nc3nnco3)ccc(C(F)(F)F)n12` [1-106]?
**A.** b (directly sowed Oryza sativa) effect on crop grade [1, 5]: 3 (Herbicidal ratio of 40% or more and less than 70%); d (Glycine max) effect on crop grade (Glycine max; [5]): 3 (Herbicidal ratio of 40% or more and less than 70%); e (Triticum aestivum) effect on crop grade (Triticum aestivum; [5]): 3 (Herbicidal ratio of 40% or more and less than 70%); g (Brassica campestris L.) effect on crop grade (Brassica campestris L.; [5]): 4 (Herbicidal ratio of 70% or more and less than 90%); c (Zea mays) effect on crop grade (Zea mays; [5]): 1 (Herbicidal ratio of 5% or more and less than 20%); f (Beta vulgaris ssp. vulgaris) effect on crop grade [2, 5]: 5 (Herbicidal ratio of 90% or more (almost completely withered)); A (Echinochloa oryzicola Vasing.) herbicidal ratio grade [3]: 5 (Herbicidal ratio of 90% or more (almost completely withered)); B (Scirpus juncoides) herbicidal ratio grade (Scirpus juncoides): 5 (Herbicidal ratio of 90% or more (almost completely withered)); C (Monochoria vaginalis) herbicidal ratio grade (Monochoria vaginalis): 4 (Herbicidal ratio of 70% or more and less than 90%); K (Lolium multiflorum Lam.) herbicidal effect grade (Lolium multiflorum Lam.; [5]): 3 (Herbicidal ratio of 40% or more and less than 70%); M (Abutilon theophrasti) herbicidal effect grade (Abutilon theophrasti; [5]): 4 (Herbicidal ratio of 70% or more and less than 90%); N (Amaranthus retroflexus) herbicidal effect grade (Amaranthus retroflexus; [5]): 5 (Herbicidal ratio of 90% or more (almost completely withered)); F (Digitaria ciliaris) herbicidal effect grade (Digitaria ciliaris; [5]): 5 (Herbicidal ratio of 90% or more (almost completely withered)); O (Chenopodium album) herbicidal effect grade (Chenopodium album; [5]): 5 (Herbicidal ratio of 90% or more (almost completely withered)); Q (Galium spurium) herbicidal effect grade (Galium spurium; [5]): 4 (Herbicidal ratio of 70% or more and less than 90%); R (Veronica persica) herbicidal effect grade (Veronica persica; [5]): 5 (Herbicidal ratio of 90% or more (almost completely withered)); J (Alopecurus myosuroides) herbicidal effect grade (Alopecurus myosuroides; [5]): 1 (Herbicidal ratio of 5% or more and less than 20%); P (Stellaria media) herbicidal effect grade (Stellaria media; [5]): 5 (Herbicidal ratio of 90% or more (almost completely withered)); L (Apera spica-venti.) herbicidal effect grade (Apera spica-venti.; [5]): 3 (Herbicidal ratio of 40% or more and less than 70%); I (Avena fatua) herbicidal effect grade (Avena fatua; [5]): 4 (Herbicidal ratio of 70% or more and less than 90%); H (Echinochloa crus-galli var. crus-galli) herbicidal effect grade [4, 5]: 5 (Herbicidal ratio of 90% or more (almost completely withered))

**Q.** `Cn1nnnc1NC(=O)c1ccc(C(F)(F)F)n2c(C3CC3)nnc12` [2-005] was tested. Which “b: effect on crop, directly sowed Oryza sativa” value [1, 6] did it give?
**A.** 0 (Herbicidal ratio of 5% or less (almost no effect))

**Q.** What about the “d: effect on crop, Glycine max” value (Glycine max; [6]) of the same molecule?
**A.** 3 (Herbicidal ratio of 40% or more and less than 70%)

**Q.** What about the “e: effect on crop, Triticum aestivum” value (Triticum aestivum; [6]) of the same molecule?
**A.** 3 (Herbicidal ratio of 40% or more and less than 70%)

**Q.** And the “g: effect on crop, Brassica campestris L.” value (Brassica campestris L.; [6])?
**A.** 4 (Herbicidal ratio of 70% or more and less than 90%)

**Q.** What about the “c: effect on crop, Zea mays” value (Zea mays; [6]) of the same molecule?
**A.** 1 (Herbicidal ratio of 5% or more and less than 20%)

**Q.** What about the “f: effect on crop, Beta vulgaris ssp. vulgaris” value [2, 6] of the same molecule?
**A.** 5 (Herbicidal ratio of 90% or more (almost completely withered))

**Q.** And the “A (Echinochloa oryzicola Vasing.) herbicidal ratio grade” value [3]?
**A.** 5 (Herbicidal ratio of 90% or more (almost completely withered))

**Q.** What about the “B (Scirpus juncoides) herbicidal ratio grade” value (Scirpus juncoides) of the same molecule?
**A.** 3 (Herbicidal ratio of 40% or more and less than 70%)

**Q.** What about the “C (Monochoria vaginalis) herbicidal ratio grade” value (Monochoria vaginalis) of the same molecule?
**A.** 4 (Herbicidal ratio of 70% or more and less than 90%)

**Q.** And the “K: herbicidal effect on Lolium multiflorum Lam.” value (Lolium multiflorum Lam.; [6])?
**A.** 2 (Herbicidal ratio of 20% or more and less than 40%)

**Q.** And the “M: herbicidal effect on Abutilon theophrasti” value (Abutilon theophrasti; [6])?
**A.** 5 (Herbicidal ratio of 90% or more (almost completely withered))

**Q.** And the “N: herbicidal effect on Amaranthus retroflexus” value (Amaranthus retroflexus; [6])?
**A.** 5 (Herbicidal ratio of 90% or more (almost completely withered))

**Q.** And the “F: herbicidal effect on Digitaria ciliaris” value (Digitaria ciliaris; [6])?
**A.** 5 (Herbicidal ratio of 90% or more (almost completely withered))

**Q.** What about the “O: herbicidal effect on Chenopodium album” value (Chenopodium album; [6]) of the same molecule?
**A.** 5 (Herbicidal ratio of 90% or more (almost completely withered))

**Q.** What about the “Q: herbicidal effect on Galium spurium” value (Galium spurium; [6]) of the same molecule?
**A.** 4 (Herbicidal ratio of 70% or more and less than 90%)

**Q.** What about the “R: herbicidal effect on Veronica persica” value (Veronica persica; [6]) of the same molecule?
**A.** 5 (Herbicidal ratio of 90% or more (almost completely withered))

**Q.** What about the “J: herbicidal effect on Alopecurus myosuroides” value (Alopecurus myosuroides; [6]) of the same molecule?
**A.** 3 (Herbicidal ratio of 40% or more and less than 70%)

**Q.** What about the “P: herbicidal effect on Stellaria media” value (Stellaria media; [6]) of the same molecule?
**A.** 5 (Herbicidal ratio of 90% or more (almost completely withered))

**Q.** What about the “L: herbicidal effect on Apera spica-venti.” value (Apera spica-venti.; [6]) of the same molecule?
**A.** 4 (Herbicidal ratio of 70% or more and less than 90%)

**Q.** What about the “I: herbicidal effect on Avena fatua” value (Avena fatua; [6]) of the same molecule?
**A.** 3 (Herbicidal ratio of 40% or more and less than 70%)

**Q.** What about the “H: herbicidal effect on Echinochloa crus-galli var. crus-galli” value [4, 6] of the same molecule?
**A.** 5 (Herbicidal ratio of 90% or more (almost completely withered))
